Like-named read-outs stand apart in the source and are kept apart here.

The target of one data set is T1, TRPV1 (hTRPV1) (Homo sapiens, UniProt Q8NER1).
T1 construct: expressed in transfected cells
The experiment in a line: Selectivity patch clamp, TRPV1 channel. The format is cell-based. The settings on record: fold selective for TRPV3 over TRPV1; tested up to 30 μM, IC50 estimated. From the text:
(§1) Data is presented as fold selective.

The test system of data set [1] is Male Holtzman rats, thermal injury. The conditions noted are these: Table B comparators; based on our data as well as data available in the literature; cited from earlier work.
Data set [2] deals with rats, CFA injected hindpaw. The settings on record: Table B comparators; based on our data as well as data available in the literature; cited from earlier work.
Data set [3] relates to Male Holtzman rats, thermal injury. The experiment in a line: Thermal injury model, thermal escape latency (Hargreaves). It counts as in vivo, rat. How it is done: The thermal injury model was used to evaluate the effectiveness of an exemplary TRPV3 inhibitor in the treatment of nociceptive pain. FIG. 1 provides a schematic representation of the protocol used to evaluate a TRPV3 inhibitor in the thermal injury model.
Briefly, the following protocol was followed. Male Holtzman rats (approximately 300 grams) were tested on thermal escape using a Hargreaves type apparatus. Under light anesthesia, a thermal injury (52° C. for 45 seconds) was applied to one heel. The animals were tested for thermal escape latency of the injured and uninjured paw before and at 30, 60, 80 and 120 minutes after injury. Drug (a TRPV3 inhibitor or morphine) or vehicle (0.5% methylcellulose) was administered after the baseline measurement and approximately 15-20 minutes prior to the thermal injury. In addition to the escape latency measurement, behavioral observations were made throughout the experiment.

For another data set, the target named is T2, NaV1.2 (Homo sapiens, UniProt Q99250).
T2 construct: expressed in transfected cells
T2 sequence (Q99250 whole entry): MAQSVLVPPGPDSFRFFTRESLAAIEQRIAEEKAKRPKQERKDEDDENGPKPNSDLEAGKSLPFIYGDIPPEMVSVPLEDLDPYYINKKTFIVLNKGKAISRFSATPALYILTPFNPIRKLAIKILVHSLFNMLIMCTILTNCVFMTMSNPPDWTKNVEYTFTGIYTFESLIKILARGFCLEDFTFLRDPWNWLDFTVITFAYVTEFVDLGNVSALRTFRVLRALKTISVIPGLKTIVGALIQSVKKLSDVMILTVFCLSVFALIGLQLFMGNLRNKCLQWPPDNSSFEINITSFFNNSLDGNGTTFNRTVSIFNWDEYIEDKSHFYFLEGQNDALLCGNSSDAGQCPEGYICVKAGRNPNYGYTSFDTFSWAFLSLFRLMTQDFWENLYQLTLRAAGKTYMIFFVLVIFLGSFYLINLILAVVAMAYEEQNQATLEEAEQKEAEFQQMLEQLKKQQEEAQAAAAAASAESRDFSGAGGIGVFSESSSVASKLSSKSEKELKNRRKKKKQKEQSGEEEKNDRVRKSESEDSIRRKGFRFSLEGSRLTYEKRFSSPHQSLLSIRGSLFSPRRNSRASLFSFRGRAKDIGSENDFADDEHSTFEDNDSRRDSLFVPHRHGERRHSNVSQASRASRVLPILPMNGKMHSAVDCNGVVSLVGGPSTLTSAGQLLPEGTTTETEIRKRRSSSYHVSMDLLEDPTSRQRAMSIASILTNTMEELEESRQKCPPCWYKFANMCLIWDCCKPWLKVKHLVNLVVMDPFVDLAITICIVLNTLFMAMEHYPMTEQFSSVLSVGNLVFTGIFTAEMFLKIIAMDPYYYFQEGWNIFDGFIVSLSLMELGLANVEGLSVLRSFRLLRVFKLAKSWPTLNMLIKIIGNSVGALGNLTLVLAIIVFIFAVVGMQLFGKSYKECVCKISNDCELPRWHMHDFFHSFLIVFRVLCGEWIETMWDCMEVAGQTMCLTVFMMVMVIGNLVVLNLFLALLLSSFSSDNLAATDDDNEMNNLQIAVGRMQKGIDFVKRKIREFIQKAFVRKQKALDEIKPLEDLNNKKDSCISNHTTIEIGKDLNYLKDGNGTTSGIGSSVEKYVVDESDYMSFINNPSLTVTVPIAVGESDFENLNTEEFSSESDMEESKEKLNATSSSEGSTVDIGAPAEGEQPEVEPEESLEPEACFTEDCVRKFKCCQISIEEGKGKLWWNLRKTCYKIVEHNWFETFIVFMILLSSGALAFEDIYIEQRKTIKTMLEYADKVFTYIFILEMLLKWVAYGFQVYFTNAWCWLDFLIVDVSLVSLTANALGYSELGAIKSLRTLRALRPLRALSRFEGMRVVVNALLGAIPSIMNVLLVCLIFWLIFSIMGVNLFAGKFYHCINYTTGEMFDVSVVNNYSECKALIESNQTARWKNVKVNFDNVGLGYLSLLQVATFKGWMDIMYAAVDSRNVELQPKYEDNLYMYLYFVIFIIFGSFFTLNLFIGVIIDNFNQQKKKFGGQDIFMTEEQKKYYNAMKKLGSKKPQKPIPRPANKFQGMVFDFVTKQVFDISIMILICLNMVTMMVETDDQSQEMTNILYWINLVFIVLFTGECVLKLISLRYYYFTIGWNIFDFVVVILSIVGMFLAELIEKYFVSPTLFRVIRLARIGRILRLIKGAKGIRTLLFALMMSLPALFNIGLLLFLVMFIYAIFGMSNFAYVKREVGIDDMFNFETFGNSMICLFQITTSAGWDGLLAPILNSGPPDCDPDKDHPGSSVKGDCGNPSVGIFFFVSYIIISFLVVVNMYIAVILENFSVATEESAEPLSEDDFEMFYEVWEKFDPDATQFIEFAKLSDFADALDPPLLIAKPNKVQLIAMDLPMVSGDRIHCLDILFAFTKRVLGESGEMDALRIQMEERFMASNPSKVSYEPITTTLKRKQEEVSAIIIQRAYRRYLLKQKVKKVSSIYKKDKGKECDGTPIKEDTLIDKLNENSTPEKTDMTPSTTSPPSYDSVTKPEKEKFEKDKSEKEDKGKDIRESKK
The experiment in a line: Selectivity patch clamp, NaV1.2 channel. It counts as cell-based. The conditions noted are these: fold selective for TRPV3 over NaV1.2; tested up to 30 μM, IC50 estimated.
Text: as §1

Data set [4] deals with Male Holtzman rats, substance-P induced thermal hyperalgesia. The experiment in a line: Intrathecal substance-P induced thermal hyperalgesia. The format is in vivo, rat. The settings on record: 200 mg/kg IP, 30 minutes prior to substance-P; p<0.05 between groups. How it is done:
The efficacy of a TRPV3 antagonist in diminishing hyperalgesia was assessed in a model of intrathecal administered substance-P induced thermal hyperalgesia. Male Holtzman rats were used in this study and thermal escape was measured using a Hargreaves apparatus. Thermal escape was measured pre-treatment (baseline), and at intervals following intrathecal administration of substance-P (tested at 15, 30, 45, and 60 minutes post substance-P administration). Control animals were administered vehicle intraperitoneally after baseline assessment and 30 minutes prior to substance P administration. Experimental animals receiving a TRPV3 inhibitor (compound 64) were administered compound intraperitoneally after baseline assessment and 30 minutes prior to substance P administration.
Substance-P induced rats were surgically prepared with a lumbar intrathecal catheter using clean surgical technique while under inhalation anesthesia (isoflurane). The catheter was externalized at the back of the head to minimize handling of the animal during drug delivery. […]
Briefly, baseline mean paw latencies were determined prior to substance-P administration. […] After injection of substance P intrathecally via the previously placed catheter (counted as time=0), measurements of escape latency were taken at 15, 30, 45, and 60 minutes post-substance-P administration. […]

The subject of data set [5] is rats, CFA injected hindpaw. The experiment in a line: Complete Freund's Adjuvant (CFA) model of inflammatory pain, latency to withdrawal. It counts as in vivo, rat. The settings on record: for Effect relative to diclofenac / TRPV1 inhibitor: highest dose tested, 200 mg/kg; for Thermal hyperalgesia (latency to withdrawal): intraperitoneal, tested 45 minutes later. As for the experimental part:
As outlined above, the Complete Freund's Adjuvant (CFA) model is a model of inflammatory pain. As such, it may be used to evaluate effectiveness in relieving pain caused by inflammation, for example, pain due to arthritis and other inflammatory conditions. FIG. 9 provides a schematic representation of the protocol used to evaluate a TRPV3 inhibitor in the CFA model.
Naive rats were pretested for sensitivity to a heat stimulus in the Hargreaves apparatus. The next day, 100 μL of complete Freund's adjuvant (CFA) was injected into the plantar surface of the right hindpaw. Two days later, in the morning, the rats were again pretested. In the afternoon, rats were injected with either vehicle control (methylcellulose or PEG-400) or with drug (TRPV3 inhibitor 64, TRPV3 inhibitor 15, TRPV1 inhibitor A-425619, or the non-steroidal anti-inflammatory diclofenac). Drugs or vehicle were injected intraperitoneally, and 45 minutes later rats were tested for hyperalgesia by applying the heat source to the CFA injected and uninjected hindpaw and measuring latency to withdrawal.

For data set [6], the system named is Male Holtzmann rats, intraplantar formalin. The experiment in a line: Formalin model following intrathecal delivery. It counts as in vivo, rat. The settings on record: 10 mg/kg intrathecally. From the text:
As outlined above, the formalin model involves injection of a formalin solution intradermally or intraperitoneally. Injection of formalin solution invokes a biphasic response, and thus provides a model for both nociceptive and inflammatory pain. The formalin model was used to evaluate the effectiveness of an exemplary TRPV3 inhibitor in the treatment of pain following intrathecal (IT) delivery. Efficacy following intrathecal delivery provides evidence that the compound can act centrally.
Briefly, the following protocol was followed. Male Holtzmann rats received intraplantar injections of 50 μL of 2% formalin. Paw flinching was detected by an automated sensor detecting movement of a small metal band placed on the injected hind paw. Drug or vehicle was administered intrathecally approximately 15 minutes prior to the injection of formalin. The animal's response to injection of the irritant was measured by counting flinches per minutes during the Early Phase and during the Late Phase.
Flinches per minute, a measure of the pain and discomfort experienced by the animal, was measured following formalin injection in animals receiving either 10 mg/kg TRPV3 inhibitor (Compound 64) or a vehicle control (0.5% DCC). The TRPV3 inhibitor was formulated in 20% DMSO/20% cremaphore/10% cyclodextrin (DCC) and administered intrathecally. […]

The target in data set [7] is T3, rat TRPV6 (rTRPV6) (Rattus norvegicus, UniProt Q9R186).
T3 construct: expressed in transfected cells
T3 sequence (Q9R186 1-767): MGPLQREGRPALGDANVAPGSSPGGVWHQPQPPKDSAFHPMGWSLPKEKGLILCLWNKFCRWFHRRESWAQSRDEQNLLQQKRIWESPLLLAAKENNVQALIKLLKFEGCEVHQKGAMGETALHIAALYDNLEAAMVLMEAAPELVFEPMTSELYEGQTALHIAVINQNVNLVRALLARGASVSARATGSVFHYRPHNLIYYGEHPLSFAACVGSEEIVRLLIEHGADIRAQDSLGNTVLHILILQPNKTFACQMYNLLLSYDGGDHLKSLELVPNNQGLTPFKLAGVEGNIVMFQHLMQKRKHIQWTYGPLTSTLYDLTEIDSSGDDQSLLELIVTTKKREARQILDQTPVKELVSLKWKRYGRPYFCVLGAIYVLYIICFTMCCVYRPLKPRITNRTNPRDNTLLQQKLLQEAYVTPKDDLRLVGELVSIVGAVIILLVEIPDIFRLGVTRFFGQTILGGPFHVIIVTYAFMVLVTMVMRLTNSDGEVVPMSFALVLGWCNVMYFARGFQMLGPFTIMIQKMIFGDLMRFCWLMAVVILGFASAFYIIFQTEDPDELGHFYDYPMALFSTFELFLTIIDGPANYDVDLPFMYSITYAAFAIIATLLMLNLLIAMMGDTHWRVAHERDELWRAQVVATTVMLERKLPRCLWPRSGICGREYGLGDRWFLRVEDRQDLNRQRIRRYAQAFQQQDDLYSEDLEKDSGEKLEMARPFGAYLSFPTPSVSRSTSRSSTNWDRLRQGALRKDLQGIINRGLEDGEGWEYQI
The experiment in a line: Selectivity patch clamp, TRPV6 channel. The settings on record: fold selective for TRPV3 over TRPV6; tested up to 30 μM, IC50 estimated. The format is cell-based.
Text: as §1

A short description of data set [8]: Plasma levels by HPLC/MS/MS after administration. It counts as in vivo. The settings on record: rat. How it is done:
The plasma levels of TRPV3 inhibitor 15 were determined via HPLC/MS/MS following administration to male Sprague-Dawley rats. Rats were administered a single intravenous bolus dose of 1.2 mg/kg, an intraperitoneal dose of a suspension of 30 or 60 mg/kg, an oral dose of a solution of 8.6 mg/kg, or an oral dose of a suspension of 6.9 mg/kg.
For intravenous administration, TRPV3 inhibitor 15 solutions were formulated in Solutol at a target concentration of 0.25 mg/mL. The solution was administered as a rapid bolus (approximately 2-3 seconds) via the tail vein of conscious rats or via jugular vein catheter in anesthetized rats. The solution was administered at a dose volume of 4 mL/kg.
For intraperitoneal administration, TRPV3 inhibitor 15 was formulated as a uniform suspension in CMC (carboxymethylcellulose) at a target concentration of 5 mg/mL. The suspension was administered at a dose volume of 10 mL/kg.
For oral administration, TRPV3 inhibitor 15 was formulated as either a uniform suspension in CMC or as a solution in Solutol. The target concentration was 1 mg/mL. Oral administration was by gavage at a dose volume of 10 mL/kg to conscious, fasted, male Sprague-Dawley rats.

The target of data set [9] is T3, rat TRPV6 (rTRPV6). The conditions noted are these: (Clapham et al.); cited from earlier work.
The target in another data set is human ERG (hERG) (Homo sapiens, UniProt Q12809). The experiment in a line: Selectivity patch clamp, hERG channel. The conditions noted are these: fold selective for TRPV3 over hERG; tested up to 30 μM, IC50 estimated.
Chain of human ERG (hERG) (Q12809 whole entry): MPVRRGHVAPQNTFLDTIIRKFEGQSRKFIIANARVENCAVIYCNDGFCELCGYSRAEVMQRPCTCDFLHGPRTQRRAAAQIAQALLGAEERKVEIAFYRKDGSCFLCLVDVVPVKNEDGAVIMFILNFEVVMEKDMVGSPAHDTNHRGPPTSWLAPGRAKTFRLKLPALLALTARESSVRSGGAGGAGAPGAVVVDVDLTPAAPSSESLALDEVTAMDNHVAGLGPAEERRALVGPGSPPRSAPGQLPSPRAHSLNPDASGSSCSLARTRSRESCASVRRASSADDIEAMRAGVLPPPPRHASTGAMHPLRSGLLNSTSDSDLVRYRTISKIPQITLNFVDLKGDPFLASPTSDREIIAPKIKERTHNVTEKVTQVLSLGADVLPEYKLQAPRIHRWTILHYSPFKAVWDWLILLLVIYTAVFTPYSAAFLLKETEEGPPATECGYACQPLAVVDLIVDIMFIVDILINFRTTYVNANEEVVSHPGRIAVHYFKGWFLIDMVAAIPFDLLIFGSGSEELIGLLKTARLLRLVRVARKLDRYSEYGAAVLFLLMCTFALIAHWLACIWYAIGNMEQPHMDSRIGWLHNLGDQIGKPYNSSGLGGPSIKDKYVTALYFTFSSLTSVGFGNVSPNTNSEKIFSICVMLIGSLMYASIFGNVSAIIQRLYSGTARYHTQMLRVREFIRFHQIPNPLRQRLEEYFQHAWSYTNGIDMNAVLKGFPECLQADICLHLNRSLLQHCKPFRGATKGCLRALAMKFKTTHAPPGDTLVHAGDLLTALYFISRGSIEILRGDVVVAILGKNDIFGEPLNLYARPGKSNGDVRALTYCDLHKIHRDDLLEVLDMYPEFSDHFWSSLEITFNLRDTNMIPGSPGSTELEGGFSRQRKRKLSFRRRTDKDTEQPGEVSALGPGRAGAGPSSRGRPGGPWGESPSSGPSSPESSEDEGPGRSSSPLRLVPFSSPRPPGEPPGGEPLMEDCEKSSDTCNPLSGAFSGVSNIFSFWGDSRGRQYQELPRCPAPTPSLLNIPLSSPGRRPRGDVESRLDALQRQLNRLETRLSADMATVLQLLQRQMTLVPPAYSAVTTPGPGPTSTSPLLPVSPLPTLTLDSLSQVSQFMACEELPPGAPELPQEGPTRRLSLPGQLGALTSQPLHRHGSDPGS

T1 sequence (Q8NER1 whole entry): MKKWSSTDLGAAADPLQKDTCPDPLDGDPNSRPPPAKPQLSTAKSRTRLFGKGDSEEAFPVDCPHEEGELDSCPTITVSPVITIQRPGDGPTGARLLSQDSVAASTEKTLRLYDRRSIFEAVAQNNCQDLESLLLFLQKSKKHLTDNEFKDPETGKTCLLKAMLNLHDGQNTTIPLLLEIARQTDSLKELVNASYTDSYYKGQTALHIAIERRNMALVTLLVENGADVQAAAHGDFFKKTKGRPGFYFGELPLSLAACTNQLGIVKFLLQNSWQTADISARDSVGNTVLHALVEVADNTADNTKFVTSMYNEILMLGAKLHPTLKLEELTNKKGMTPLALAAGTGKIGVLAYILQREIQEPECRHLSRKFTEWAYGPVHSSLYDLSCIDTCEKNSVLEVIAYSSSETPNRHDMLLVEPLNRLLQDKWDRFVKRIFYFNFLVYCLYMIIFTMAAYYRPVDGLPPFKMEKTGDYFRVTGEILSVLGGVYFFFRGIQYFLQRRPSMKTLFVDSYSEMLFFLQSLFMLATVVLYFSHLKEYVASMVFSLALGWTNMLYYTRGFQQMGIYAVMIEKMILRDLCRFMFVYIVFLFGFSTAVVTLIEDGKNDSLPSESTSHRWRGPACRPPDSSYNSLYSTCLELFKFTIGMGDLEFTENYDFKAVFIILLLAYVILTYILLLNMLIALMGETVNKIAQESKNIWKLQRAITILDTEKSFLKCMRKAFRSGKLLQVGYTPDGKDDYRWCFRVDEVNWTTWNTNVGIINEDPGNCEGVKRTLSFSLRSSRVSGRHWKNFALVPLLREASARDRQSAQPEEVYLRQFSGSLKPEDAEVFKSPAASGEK
Method for human ERG (hERG): Compounds of interest were tested against these channels at concentrations up to 30 μM, and the resulting data were used to estimate IC50. Data is presented as fold selective.

On to `Cc1cccc2c1N(C(=O)CSc1nc3ccccc3s1)CCC2` [Compound 46, 2-(Benzothiazol-2-ylsulfanyl)-1-(8-methyl-3,4-dihydro-2H-quinolin-1-yl)-ethanone], for which the “TRPV3:TRPV1 fold selectivity” value on TRPV1 (hTRPV1) is listed as above 200 fold.
Take `NCC1(CC(=O)O)CCCCC1` [Gabapentin]: the Acute thermal injury entry in [1] is recorded as “Effective”. Further, the “CFA Model” value in [2] is listed as “Ineffective”.
Turning to `O=C(CSc1nc2ccccc2s1)N1CCCc2ccccc21` [Compound 64, 2-(Benzo[d]thiazol-2-ylthio)-1-(3,4-dihydroquinolin-1(2H)-yl)ethanone], the “Escape latency in the injured paw” value in data set [3] (200 mg/kg) is given as “comparable to that observed prior to injury”. In addition, the “Escape latency in the uninjured paw” value in data set [3] (even at the highest concentrations administered (FIG. 3)) was “no effect on the uninjured paw”. Moreover, in data set [3] (increasing concentrations of inhibitor vs methylcellulose control (FIG. 2)), the “Escape latency in the injured paw” value is “significantly diminished pain”. In addition, the “TRPV3:NaV1.2 fold selectivity” value on NaV1.2 is above 40 fold. In addition, the “Thermal hyperalgesia (mean paw latency)” value in data set [4] was “reversed the hyperalgesia”. In data set [5], the “Effect relative to diclofenac / TRPV1 inhibitor” value is “more potent than the effects of either the non-steroidal anti-inflammatory or the TRPV1 inhibitor” and the “Thermal hyperalgesia (latency to withdrawal)” value is reported as “reduced thermal hyperalgesia”. In addition, the “Pain sensitivity of inflamed paw” value in data set [5] (individual rats, FIG. 11) was “returns pain sensitivity to baseline levels”. Also, in data set [6] (about 15 minutes prior to formalin, vs vehicle), the Flinches per minute entry is reported as “substantially reduced the flinches per minute”. In addition, the “Flinches per minute, Late Phase” value in data set [6] (Late Phase) was “statistically significant reduction”. Further, at TRPV1 (hTRPV1), the “TRPV3:TRPV1 fold selectivity” value is recorded as above 40 fold. At rat TRPV6 (rTRPV6) [7], the “TRPV3:TRPV6 fold selectivity” value is on record as above 40 fold.
Turning to `Cc1cccc2c1N(C(=O)CSc1nc3cc(Cl)ccc3s1)CCC2` [Compound 15, 2-(5-Chlorobenzothiazol-2-ylsulfanyl)-1-(8-methyl-3,4-dihydro-2H-quinolin-1-yl)-ethanone], the bioavailability in data set [8] (male, Sprague-Dawley, fasted rats, oral, solution or suspension, read-out: Estimated bioavailability) is around 5%. The half-life in data set [8] (male Sprague-Dawley rats, read-out: Estimated half-life (converted)) was 1.6 h. Further, the clearance in data set [8] (male Sprague-Dawley rats, read-out: Estimated plasma clearance) is 41 mL/min/kg. Besides, the Vd in [8] (male Sprague-Dawley rats, read-out: Estimated volume of distribution) was 5.51 L/kg. The “TRPV3:NaV1.2 fold selectivity” value at NaV1.2 was above 1000 fold. Also, in [5], the “Effect relative to diclofenac / TRPV1 inhibitor” value was “more potent than the effects of the non-steroidal anti-inflammatory” and the “Thermal hyperalgesia (latency to withdrawal)” value was “reduced thermal hyperalgesia”. At TRPV1 (hTRPV1), the “TRPV3:TRPV1 fold selectivity” value is reported as above 1000 fold. For the same molecule, the “TRPV3:TRPV6 fold selectivity” value at rat TRPV6 (rTRPV6) [7] was above 1000 fold.
With `N.N.N.N.N.N.N.N.N.N.N.N.N.N.[Cl-].[Cl-].[Cl-].[Cl-].[Cl-].[Cl-].[O-2].[O-2].[Ru+3].[Ru+3].[Ru+4]` [Ruthenium Red], on rat TRPV6 (rTRPV6) [9], the “TRPV3:TRPV6 fold selectivity” value was 10 fold. The “TRPV3:hERG fold selectivity” value on human ERG (hERG) is on record as above 40 fold. Further, on TRPV1 (hTRPV1), the “TRPV3:TRPV1 fold selectivity” value was 3 fold selective.

As a reminder, the bioavailability is dose-corrected exposure relative to a reference, in per cent. Broadly, the half-life is how long it takes for the measured level to halve. In general, clearance refers to a measure of how efficiently the substance is removed, as volume per time.

The values above are taken from patent US8916550B2, “Compounds for modulating TRPV3 function” (Hydra Biosciences, Inc., priority 2005, dated 2014).
